Experimental findings from patent publication US8828401B2, “Cytotoxic peptides and antibody drug conjugates thereof” (Pfizer Inc., priority 2011, dated 2014) are described below.

Read-outs that look alike come from different tables or passages of the source. Starred links: 1 amine or outer side, 2 acyl side, 3 side chain; linkers in the order of their positions; H or OH if unused. Non-standard residues stand in square brackets, D forms with d. Residues, ends and D or L forms follow the SMILES beside them. *: point of attachment. Dolaproine = CO[C@@H]([C@@H]1CCCN1)[C@@H](C)C(=O)O; X6 = O=C([C@H](N[*:1])[C@@H]1Cc2ccccc21)[*:2]; X5 = O=C([C@@H](N[*:1])C1(c2ccccc2)CC1)[*:2]; X2 = O=C([C@H](N[*:1])C1(c2ccccc2)CC1)[*:2]; Dil = CC[C@H](C)[C@H](NC)[C@@H](CC(=O)O)OC; NMeαMePro = CN1CCC[C@@]1(C)C(=O)*; N(CH2CH2)2NH = C1CN(*)CCN1; X1 = CN1CCC[C@]1(C)C(=O)*; NMeAib = CNC(C)(C)C(=O)O; X4 = CN(C)C(C)(C)C(=O)*; NH(propargyl) = C#CCN*; Aib = CC(C)(N)C(=O)O; X3 = C1C2CC1(N*)C2 Some results are limits rather than exact numbers.

Common to all, as to format: cell-based
For test [1], the system named is BT474 (breast cancer). Briefly: In vitro cell assay, MTS cell viability 96 hours after treatment. As to conditions: geometric mean, cytotoxic peptides, read-out: BT474 GMEAN IC50. The procedure, abridged: (§1)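 Duplicate wells received antibody-drug conjugates or free compounds across ten 3-fold dilutions. MTS assay determined viability, normalised to untreated controls.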

Test [2] deals with MDA-MB-361-DYT2 (breast cancer). The description is as above. The conditions noted are these: read-out: MDA-MB-361-DYT2 GMEAN IC50, MDA-MB-361-DYT2 cells; geometric mean; cytotoxic peptides. The procedure, abridged: as §1
The subject of test [3] is N87 (gastric cancer). The test is described as above. As to conditions: read-out: N87 GMEAN IC50, N87 cells; geometric mean; cytotoxic peptides. The procedure, abridged: as §1
Test [4] relates to MDA-MB-468 (breast cancer). Briefly: In vitro cytotoxicity assay with anti-Notch ADCs (MTS). As to conditions: average of 2-4 repeats where ± S.E.M. is given. On the procedure:
The effects of anti-Notch ADCs were assessed on 1) cell lines endogenously expressing Notch protein: HCC2429 (lung cancer), OVCAR3 (ovarian cancer) and MDA-MB-468 (breast cancer), 2) cell lines engineered to over-express Notch protein: MDA-MB-468/hNotch and U2OS/hNotch, and 3) a negative control cell line (SW900) using an MTS cellular viability indicator (Promega, Madison, Wis.). These cell lines were cultured with increasing concentrations of anti-Notch ADCs comprising humanized anti-Notch antibodies, hu28 and hu75, and rat-human chimeric anti-Notch antibodies, ch28 and ch75, conjugated to various linker-payload combinations of the present invention. As a specificity control for the anti-Notch-ADCs, non-targeted control-ADCs (huNeg8.8-ADCs or ch2H6-ADCs) were also tested on the same cell lines. After four days, viability of each culture was assessed. IC50 values were calculated by logistic non-linear regression and presented as ng Ab/mL. The drug antibody ratio (DAR) is also provided.

[5] abbreviates: Homo sapiens, BT-474, BT474 cells.

As usually defined, the IC50 is the concentration needed to halve the response being measured. Take `CC[C@H](C)[C@@H]([C@@H](CC(=O)N1CCC[C@H]1[C@H](OC)[C@@H](C)C(=O)N[C@@H](Cc1ccccc1)C(=O)OC)OC)N(C)C(=O)[C@@H](NC(=O)[C@@]1(F)CCNC1)C(C)C` [#173, methyl N-{(2R,3R)-3-[(2S)-1-{(3R,4S,5S)-4-[(N-{[(3R)-3-fluoropyrrolidin-3-yl]carbonyl}-L-valyl)(methyl)amino]-3-methoxy-5-methylheptanoyl}pyrrolidin-2-yl]-3-methoxy-2-methylpropanoyl}-L-phenylalaninate]: the values for the IC50 in test [1] (BT474 cells), in test [2] and in test [3] were 0.088 nM, 0.067 nM and 0.099 nM, respectively.
For the molecule `CC[C@H](C)[C@@H]([C@@H](CC(=O)N1CCC[C@H]1[C@H](OC)[C@@H](C)C(=O)NCCC1C=CC=CC=C1)OC)N(C)C(=O)[C@@H](NC(=O)[C@]1(C)CCCCN1)C(C)C` [#178, (2S)-N-[(2S)-1-{[(3R,4S,5S)-1-{(2S)-2-[(1R,2R)-3-{[2-(cyclohepta-2,4,6-trien-1-yl)ethyl]amino}-1-methoxy-2-methyl-3-oxopropyl]pyrrolidin-1-yl}-3-methoxy-5-methyl-1-oxoheptan-4-yl](methyl)amino}-3-methyl-1-oxobutan-2-yl]-2-methylpiperidine-2-carboxamide], the 50% inhibitory concentration (IC50) was 0.968 nM in test [1] (setting [5]), 0.911 nM in test [2] and 1.26 nM in test [3].
Turning to `CC[C@H](C)[C@@H]([C@@H](CC(=O)N1CCC[C@H]1[C@H](OC)[C@@H](C)C(=O)NCCC1C=CC=CC=C1)OC)N(C)C(=O)[C@@H](NC(=O)[C@@]1(F)CCNC1)C(C)C` [#184, N-[(3R,4S,5S)-1-{(2S)-2-[(1R,2R)-3-{[2-(cyclohepta-2,4,6-trien-1-yl)ethyl]amino}-1-methoxy-2-methyl-3-oxopropyl]pyrrolidin-1-yl}-3-methoxy-5-methyl-1-oxoheptan-4-yl]-N˜2˜-{[(3R)-3-fluoropyrrolidin-3-yl]carbonyl}-N-methyl-L-valinamide], the IC50 in test [1] (setting [5]) amounted to 2.48 nM; in test [2], 3.43 nM; in test [3] it was 5.1 nM.
On the same counts, the results for `CC[C@H](C)[C@@H]([C@@H](CC(=O)N1CCC[C@H]1[C@H](OC)[C@@H](C)C(=O)N[C@@H](Cc1ccc2c(c1)CCCN2)C(=O)OC)OC)N(C)C(=O)[C@@H](NC(=O)[C@@]1(C)CCCN1C)C(C)C` [#200, 1,2-dimethyl-D-prolyl-N-[(3R,4S,5S)-3-methoxy-1-{(2S)-2-[(1R,2R)-1-methoxy-3-{[(2S)-1-methoxy-1-oxo-3-(1,2,3,4-tetrahydroquinolin-6-yl)propan-2-yl]amino}-2-methyl-3-oxopropyl]pyrrolidin-1-yl}-5-methyl-1-oxoheptan-4-yl]-N-methyl-L-valinamide] are 0.048 nM, 0.017 nM and 0.029 nM.
For the molecule `CC[C@H](C)[C@@H]([C@@H](CC(=O)N1CCC[C@H]1[C@H](OC)[C@@H](C)C(=O)N[C@@H](Cc1ccccc1)C(=O)OC)OC)N(C)C(=O)[C@@H](NC(=O)[C@]1(C)CCCN1C)C(C)C` [#209, 1,2-dimethyl-L-prolyl-N-[(3R,4S,5S)-3-methoxy-1-{(2S)-2-[(1R,2R)-1-methoxy-3-{[(2S)-1-methoxy-1-oxo-3-phenylpropan-2-yl]amino}-2-methyl-3-oxopropyl]pyrrolidin-1-yl}-5-methyl-1-oxoheptan-4-yl]-N-methyl-L-valinamide] (NMeαMePro-V[Dil][Dolaproine]F-OMe), the half-inhibitory concentration (IC50) is 0.067 nM in test [1] (setting [5]), 0.058 nM in test [2] and 0.067 nM in test [3].
Consider `CC[C@H](C)[C@@H]([C@@H](CC(=O)N1CCC[C@H]1[C@H](OC)[C@@H](C)C(=O)NC12CC(C1)C2)OC)N(C)C(=O)[C@@H](NC(=O)C(C)(C)N)C(C)C` [#221] (H-[Aib]V[Dil][Dolaproine]-X3), for which the IC50 in test [1] (setting [5]) was 32.4 nM; in test [2] it was 65.4 nM; in test [3], 87.9 nM.
For `CC[C@H](C)[C@@H]([C@@H](CC(=O)N1CCC[C@H]1[C@H](OC)[C@@H](C)C(=O)N[C@H](C(=O)OC)C1(c2ccccc2)CC1)OC)N(C)C(=O)[C@@H](NC(=O)C(C)(C)N)C(C)C` [#223] (H-[Aib]V[Dil][Dolaproine][X5]-OMe) the same measures were 7.59 nM, 10.9 nM and 13 nM.
With `CC[C@H](C)[C@@H]([C@@H](CC(=O)N1CCC[C@H]1[C@H](OC)[C@@H](C)C(=O)N[C@@H](C(=O)OC)[C@@H]1Cc2ccccc21)OC)N(C)C(=O)[C@@H](NC(=O)C(C)(C)N)C(C)C` [#224] (H-[Aib]V[Dil][Dolaproine][X6]-OMe), the IC50 in test [1] (setting [5]) is 0.383 nM; in test [2], 0.998 nM; in test [3], 1.56 nM.
`CC[C@H](C)[C@@H]([C@@H](CC(=O)N1CCC[C@H]1[C@H](OC)[C@@H](C)C(=O)N[C@@H](Cc1ccccc1)C(=O)OC)OC)N(C)C(=O)[C@@H](NC(=O)C(C)(C)NC)C(C)C` [#226] (H-[NMeAib]V[Dil][Dolaproine]F-OMe): the IC50 came out at 0.118 nM in test [1] (setting [5]), 0.106 nM in test [2] and 0.478 nM in test [3].
For the molecule `CC[C@H](C)[C@@H]([C@@H](CC(=O)N1CCC[C@H]1[C@H](OC)[C@@H](C)C(=O)N[C@@H](Cc1ccccc1)C(=O)O)OC)N(C)C(=O)[C@@H](NC(=O)C(C)(C)N(C)C)C(C)C` [#229] (X4-V[Dil][Dolaproine]F-OH), the concentration for half-maximal inhibition (IC50) in test [1] (setting [5]) was found to be 18.4 nM; in test [2], 10.2 nM; in test [3], 16.6 nM.
For `CC[C@H](C)[C@@H]([C@@H](CC(=O)N1CCC[C@H]1[C@H](OC)[C@@H](C)C(=O)N[C@@H](C(=O)O)C1(c2ccccc2)CC1)OC)N(C)C(=O)[C@@H](NC(=O)C(C)(C)N)C(C)C` [#230] (H-[Aib]V[Dil][Dolaproine][X2]-OH), the IC50 was not below 100 nM in test [1] (setting [5]), 70.2 nM in test [2] and 89.1 nM in test [3].
For the molecule `CC[C@H](C)[C@@H]([C@@H](CC(=O)N1CCC[C@H]1[C@H](OC)[C@@H](C)C(=O)N[C@@H](Cc1ccccc1)C(=O)OC)OC)N(C)C(=O)[C@@H](NC(=O)[C@@]1(C)CCCN1C)C(C)C` [#236] (X1-V[Dil][Dolaproine]F-OMe), the IC50 was found to be 0.02 nM in test [1] (setting [5]), 0.01 nM in test [2] and 0.023 nM in test [3].
On to `C#CCNC(=O)[C@H](Cc1ccccc1)NC(=O)[C@H](C)[C@@H](OC)[C@@H]1CCCN1C(=O)C[C@@H](OC)[C@H]([C@@H](C)CC)N(C)C(=O)[C@@H](NC(=O)C(C)(C)NC)C(C)C` [#241] (H-[NMeAib]V[Dil][Dolaproine]F-{NH(propargyl)}), for which the 50% inhibitory concentration (IC50) was 0.364 nM in test [1] (setting [5]), 0.494 nM in test [2] and 0.388 nM in test [3].
On the same counts, the results for `CC[C@H](C)[C@@H]([C@@H](CC(=O)N1CCC[C@H]1[C@H](OC)[C@@H](C)C(=O)N[C@@H](Cc1c[nH]cn1)C(=O)OC)OC)N(C)C(=O)[C@@H](NC(=O)C(C)(C)NC)C(C)C` [#242] (H-[NMeAib]V[Dil][Dolaproine]H-OMe) are 32.3 nM, 34.5 nM and 41.3 nM.
With `CC[C@H](C)[C@@H]([C@@H](CC(=O)N1CCC[C@H]1[C@H](OC)[C@@H](C)C(=O)N[C@H](Cc1ccccc1)C(=O)O)OC)N(C)C(=O)[C@@H](NC(=O)C(C)(C)NC)C(C)C` [#244] (H-[NMeAib]V[Dil][Dolaproine][dF]-OH), the IC50 was 73.1 nM in test [1] (setting [5]), not below 100 nM in test [2] and not below 100 nM in test [3].
`CC[C@H](C)[C@@H]([C@@H](CC(=O)N1CCC[C@H]1[C@H](OC)[C@@H](C)C(=O)N[C@@H](Cc1ccccc1)C(=O)N1CCNCC1)OC)N(C)C(=O)[C@@H](NC(=O)[C@]1(C)CCCN1C)C(C)C` [#245] (NMeαMePro-V[Dil][Dolaproine]F-{N(CH2CH2)2NH}): the half-maximal inhibitory concentration (IC50) in test [1] (setting [5]) worked out at 11.8 nM; in test [2] it was 31.9 nM; in test [3], 33 nM.
For `CC[C@H](C)[C@@H]([C@@H](CC(=O)N1CCC[C@H]1[C@H](OC)[C@@H](C)C(=O)N[C@H](CN)Cc1ccccc1)OC)N(C)C(=O)[C@@H](NC(=O)[C@]1(C)CCCN1C)C(C)C` [#246], the figures for the IC50 in test [1] (setting [5]), in test [2] and in test [3] were 3.16 nM, 5.43 nM and 10.8 nM, respectively.

B1: ch75-MalPeg6C2-8261 (conjugate)
VH: QVKLLQSGAALVKPGASVKMSCKASGYAFTDYWVTWVKQSHGKSLEWIGEISPNSGGTNFNEKFKGKATLTVDKSTSTAYMELSRLTSEDSAIYYCTRGEIRYNWFAYWGQGTLVTVSS
VL: DIQMTQSPSSLSASVGDRVTITCKASQNVGNNIAWYQQKPGKAPKLLIYYASNRYTGVPSRFSGSGYGTDFTLTISSLQPEDFATYYCQRLYNSPFTFGGGTKVEIK
Turning to B1, the “IC50 (ng Ab/mL) ± S.E.M.” value in test [4] turned out to be 4255 ± 2375 ng Ab/mL.

B2: ch75-me0131 (conjugate)
VH: QVKLLQSGAALVKPGASVKMSCKASGYAFTDYWVTWVKQSHGKSLEWIGEISPNSGGTNFNEKFKGKATLTVDKSTSTAYMELSRLTSEDSAIYYCTRGEIRYNWFAYWGQGTLVTVSS
VL: DIQMTQSPSSLSASVGDRVTITCKASQNVGNNIAWYQQKPGKAPKLLIYYASNRYTGVPSRFSGSGYGTDFTLTISSLQPEDFATYYCQRLYNSPFTFGGGTKVEIK
With B2, the “IC50 (ng Ab/mL) ± S.E.M.” value in test [4] is 259 ng Ab/mL.
